System: Wistar female rats
Experiment: Oral Glucose Tolerance Test in animals (in vivo screening of hypoglycemic effect)
Details: three experiments; for % change in glucose level (Mean ± SEM) 30 Min: 30 min after glucose (2 gm/Kg, given 3 hrs after compound), oral equimolar dose (Sitagliptin 9.0, CPL-2009-0030 11.28, CPL-2009-0031 12.0 mg/kg), no treatment 199 ± 5; for % change in glucose level (Mean ± SEM) 1 Hr: 1 hr after glucose (2 gm/Kg, given 3 hrs after compound), no treatment 154 ± 4; for % change in glucose level (Mean ± SEM) 1 Hr / % change in glucose level (Mean ± SEM) 2 hr: oral equimolar dose; for % change in glucose level (Mean ± SEM) 2 hr: 2 hr after glucose (2 gm/Kg, given 3 hrs after compound), no treatment 122 ± 5
Method: The efficacy compound CPL-2009-0030 and CPL-2009-0031 were prepared as per present invention. They were evaluated through Oral Glucose Tolerance Test in animals. Each group consist of 10-12 weeks old Wistar female rats. The animals were divided into 4 different groups of 6 animals per group. The group I received vehical (WFI Placebo), Group II received Sitagliptin as positive control, Group III received CPL-2009-0030 and Group IV received CPL-2009-0031. All animals had over night fasting.
The drug was administrated as per table 01 at 0 hour to all the study group animals with 10 mL/kg of dose volume. The compounds were administered orally. The glucose (2 gm/Kg body weight) was administered 3 hrs after the administration of compounds. Blood glucose was measured at the time of administration of compound, glucose and 30 min, 1 hr, 2 hr, 3 hr and 4 hr after the glucose administration. […] The rise was maximum at 30 min after glucose administration. […] The difference between no treatment group and other three groups is maximum at 30 min and it decreases over time (FIG. 1). […] Thus, the compound of present invention reduces hyperglycaemic effect of glucose without inducing hypoglycaemia. In other words, compounds of present invention provide hypoglycaemic effect only to reduce post-prandial hyperglycaemia without inducing fasting hypoglycaemia.
To confirm the finding the experiment was repeated three times and the percentage change in glucose level over time of three experiments is presented in table 02. The repeat experiments also confirm the findings.

Row | Compound | % change in glucose level (Mean ± SEM) 30 Min | % change in glucose level (Mean ± SEM) 1 Hr | % change in glucose level (Mean ± SEM) 2 hr
1 | N[C@@H](CC(=O)N1CCn2c(nnc2C(F)(F)F)C1)Cc1cc(F)c(F)cc1F [Sitagliptin, reference compound] | 149 ± 5% | 130 ± 4% | 109 ± 2%
2 | NC(Cc1ccccc1)C(=O)NC(CC(=O)N1CCn2c(nnc2C(F)(F)F)C1)Cc1cc(F)c(F)cc1F (stereo not drawn) [CPL-2009-0031] | 125 ± 3% | 123 ± 4% | 110 ± 3%
3 | CCC(C)C(N)C(=O)NC(CC(=O)N1CCn2c(nnc2C(F)(F)F)C1)Cc1cc(F)c(F)cc1F (stereo not drawn) [CPL-2009-0030] | 145 ± 13% | 127 ± 6% | 108 ± 5%
